The text below walks through data of article PMC3791940, “Compounds from Gum Ammoniacum with Acetylcholinesterase Inhibitory Activity” (Scientia Pharmaceutica, 2013).

Read-outs that look alike come from different tables or passages of the source.

In the assay the target is T1, AChE from electric eel (Electrophorus electricus, UniProt O42275).
T1 construct: purchased Sigma (St. Louis, USA)
Kind of assay: Quantitative colorimetric microplate assay based on Ellman's method for AChE inhibitory activity. In kind it is biochemical. The conditions noted are these: for IC50: read-out: IC50, inhibition of AchE (converted). The procedure:
The tested concentrations of the samples ranged from 1.56 to 200 μg/mL. Based on the resulting curves, the IC50 values for AChE inhibition were calculated using the respective curves’ equations (Table 1).
Acetylthiocholine iodide (ATCI) and chelidonine were obtained from Fluka (Buchs, Switzerland). Fast Blue B salt (FBS) and silica gel 60 were from Merck (Darmstadt, Germany). The solvents MeOH, EtOAc, CH2Cl2, and CHCl3 were purchased from VWR (Vienna, Austria). Two different buffer systems were used (buffer A: 50 mM Tris-HCl, pH 7.9 containing 0.1% BSA; buffer B: 50 mM Tris-HCl, pH 7.9 containing 0.1 M NaCl and 0.02 M MgCl2·6H2O).
A quantitative colorimetric assay based on Ellman’s method was used to measure the AChE inhibitory activities of the substances. Briefly, in a 96-well plate, 25 μL of 15 mM ATCI, 125 μL of 3 mM DTNB in buffer B, 50 μL of buffer A, and 25 μL of the extract or the isolated substances (from 15.6 μg/mL to 2.0 mg/mL in 10% DMSO) were thoroughly mixed and the absorbance was read at 405 nm five times every 15 s. Finally, 25 μL of AChE (0.22 U/mL in buffer A) were added and the plate was incubated at 25°C for 10 minutes. Then the absorbance was measured again eight times every 15 s. A 10% DMSO solution was used as the negative control. To compensate for any increase in absorbance due to the color of the extracts or spontaneous hydrolysis of the substrate, the absorbance before the addition of the enzyme was subtracted from the absorbance after adding the enzyme. The assay was repeated three times for every concentration.
In general terms: Ellman's reagent forms a yellow product with free thiols.

Setting [1] is: n=3, 25°C, 10 min incubation, tested 1.56 to 200 μg/mL.
The mark [2] stands for this setting: n=3, same values given in molar unit.

T1 sequence (O42275 24-633): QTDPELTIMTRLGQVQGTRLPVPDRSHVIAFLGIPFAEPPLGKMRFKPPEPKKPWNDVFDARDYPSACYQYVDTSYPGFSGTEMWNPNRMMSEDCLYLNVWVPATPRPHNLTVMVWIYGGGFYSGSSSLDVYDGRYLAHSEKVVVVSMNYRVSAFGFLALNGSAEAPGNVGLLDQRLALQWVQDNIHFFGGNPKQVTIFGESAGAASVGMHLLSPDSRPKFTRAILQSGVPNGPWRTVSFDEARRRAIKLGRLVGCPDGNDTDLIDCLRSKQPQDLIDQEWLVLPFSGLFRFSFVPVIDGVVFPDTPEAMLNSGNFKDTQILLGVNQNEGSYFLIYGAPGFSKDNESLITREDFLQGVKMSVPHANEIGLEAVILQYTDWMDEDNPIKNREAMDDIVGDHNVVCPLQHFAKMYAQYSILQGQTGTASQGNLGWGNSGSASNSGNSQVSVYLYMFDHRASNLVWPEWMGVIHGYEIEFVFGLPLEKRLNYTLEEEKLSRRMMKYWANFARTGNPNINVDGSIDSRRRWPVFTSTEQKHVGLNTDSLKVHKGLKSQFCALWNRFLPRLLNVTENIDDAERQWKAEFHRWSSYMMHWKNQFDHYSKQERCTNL

The IC50 is the point on the concentration scale where inhibition reaches its midpoint. For `C=C[C@]1(C)CC[C@@H](C(C)C(O)C(=O)C=C(C)C)C12C(=O)Oc1cc(OC)ccc1C2=O` (stereo partly drawn) [Compound 1, (2′S,5′S)-2′-ethenyl-5′-(3hydroxy-6-methyl-4-oxohept-5-en-2-yl)-7-methoxy-2′-methyl-4H-spiro[chromene-3,1′-cyclopentane]-2,4-dione], the “AChE inhibitory activity (in words)” value is given as “only low activities”. For the same compound, the IC50 under setting [1] is 181 µM. For the same compound, under setting [2], the IC50 was 181 µM.

Turning to `C=C[C@]1(C)CC[C@H]([C@@H](C)C(=O)[C@H](O)C=C(C)C)C12C(=O)Oc1cc(OC)ccc1C2=O` (stereo partly drawn) [Compound 2, (2′S,5′R)-2′-ethenyl-5′-[(2R,4R)-4-hydroxy-6-methyl-3-oxohept-5-en-2-yl]-7-methoxy-2′-methyl-4H-spiro[chromene-3,1′-cyclopentane]-2,4-dione], the “AChE inhibitory activity (in words)” value is given as “only low activities”. For the same compound, the IC50 under setting [1] was 236 µM. For the same compound, under setting [2], the IC50 is 237 µM.

Consider `CC(C)=CCC/C(C)=C/CC/C(C)=C/CCC(=O)c1ccc(O)cc1O` [Compound 3, (4E,8E)-1-(2,4-dihydroxyphenyl)-5,9,13-trimethyltetradeca-4,8,12-trien-1-one], for which the “times more active than compounds 1, 2 and 4 (AChE inhibition)” value (comparison of IC50 values) is on record as “about 10 times”. Besides, the IC50 is 23.4 µM under setting [1] and 23.5 µM under setting [2].

On to `CC(C)=CCC/C(C)=C/CC/C(C)=C/Cc1c(O)c2ccc(O)cc2oc1=O` [Compound 4, 4,7-dihydroxy-3-[(2E,6E)-3,7,11-trimethyldodeca-2,6,10-trien-1-yl]-2H-chromen-2-one], for which the “AChE inhibitory activity (in words)” value was “only low activities”. Moreover, the IC50 under setting [1] is 201 µM. In addition, under setting [2], the IC50 is 201 µM.
